Results on one compound are retold here after publication PMC11236999, “Antagonism of propofol anesthesia by alkyl-fluorobenzene derivatives” (Scientific Reports, 2024).

Entries after “also recorded” stand apart in the source; their conditions may differ.

The subject of test [1] is 5 dpf zebrafish. The test is described as follows: Antagonism of anesthesia after induction (sequential addition). It counts as in vivo. Conditions: propofol 3 μM for 10 min, then propofol 3 μM plus 30 μM compound. As for the experimental part:
In the above studies, the anesthetic and PFAL compounds were co-administered to the fish simultaneously.
Figure 5 Further Characterization of Propofol Antagonism with Compounds 9 and 10. a and b 5 dpf zebrafish (n = 36) were first anesthetized with 3 μM propofol and then 30 μM of either compound 9 or 10 was added. Between minutes 5 and 10 there is a small gap in the data during which the propofol solution was removed and a solution containing propofol and PFAL compound was added. […] The mean and 95% CI is shown for each data point in all panels.
Behavioral experiments (screening, EC50 curves) were performed as previously reported. Antagonism after induction was conducted in a similar manner with different timepoints and solution changes as indicated. The DanioVision Observation Chamber (Noldus) and Ethovision XT16 software were used to track and record (1280 × 960 resolution at 25 frames per second) larval zebrafish (5 dpf) movement in glass 96-well plates (Zissner North America 3,600,500). […] An EM response using the Daniovision tapping device (8 out of 8 intensity, movement response measured for 1 s after stimulus) was also measured at the end of the SM observation period. […] Toxicity was measured in separate experiments by exposing larvae to compounds for 30 min, transferring to fresh E3, and then observing mortality after exposure.

The subject of test [2] is 5 dpf larval zebrafish. Nature of the test: Zebrafish behavioral model of anesthesia, elicited movement (EM, tap stimulus). The format is in vivo. As for the experimental part: (§1) Figure 2 Screening of PFAL compounds for antagonism of anesthesia. PFAL compounds were screened in 5 dpf zebrafish for their ability to antagonize the anesthetic effects of propofol (panels a, b, c and d) as well as sevoflurane and isoflurane (panels e and f). Each dot represents the data collected from one fish. Spontaneous movement (SM) is the distance of spontaneous swimming in a 4 min period, and elicited movement (EM) is distance moved in 1 s after exposure to a tap stimulus. Both measures were scaled to same-day DMSO controls. […] Mean and 95% CI are shown for each data set. Statistical comparison with both DMSO (D) only (black asterisks) and anesthetic control (Ctrl, gray asterisks) groups are shown. Note that each DMSO comparison is to the DMSO only control (sample on the furthest left of each graph, and the anesthetic control comparisons are made within each anesthetic grouping as indicated by the bars along the x-axis of each graph. ns: P > 0.05, *: P ≤ 0.05, **: P ≤ 0.01, ***: P ≤ 0.001, ****: P ≤ 0.0001).
(§2) Behavioral experiments (screening, EC50 curves) were performed as previously reported. Antagonism after induction was conducted in a similar manner with different timepoints and solution changes as indicated. The DanioVision Observation Chamber (Noldus) and Ethovision XT16 software were used to track and record (1280 × 960 resolution at 25 frames per second) larval zebrafish (5 dpf) movement in glass 96-well plates (Zissner North America 3,600,500). All experiments were performed at 28 °C with the DanioVision Temperature Control Unit. Zebrafish were allowed to equilibrate in E3 and 2% DMSO (with or without drug) for 10 min before being placed in the observation chamber for 22 min of recording. Two different endpoints were used to assess depth of anesthesia: spontaneous movement (SM) and elicited movement (EM). In these measures, fish movement was considered to be non-anesthetized. During each observation, fish were given time to acclimate to the chamber, and minutes 15–19 of the recording were used for analysis of SM. An EM response using the Daniovision tapping device (8 out of 8 intensity, movement response measured for 1 s after stimulus) was also measured at the end of the SM observation period. All recordings were scrutinized by a blind observer for technical errors in tracking to ensure accuracy of zebrafish detection and inaccurate tracking was excluded from further analysis. Toxicity was measured in separate experiments by exposing larvae to compounds for 30 min, transferring to fresh E3, and then observing mortality after exposure. […]

Test [3] concerns propofol-sensitive GABAAR. More on the design: method as in PMID 25799399. Conditions: cited from earlier work.
Test [4] concerns the target T1, horse spleen apoferritin (HSAF) (Equus caballus, UniProt P02791).
T1 construct: model protein HSAF (horse spleen apoferritin); purchased Sigma-Aldrich; host or cells: horse spleen (tissue-derived)
T1 sequence (P02791 2-175 limits assumed): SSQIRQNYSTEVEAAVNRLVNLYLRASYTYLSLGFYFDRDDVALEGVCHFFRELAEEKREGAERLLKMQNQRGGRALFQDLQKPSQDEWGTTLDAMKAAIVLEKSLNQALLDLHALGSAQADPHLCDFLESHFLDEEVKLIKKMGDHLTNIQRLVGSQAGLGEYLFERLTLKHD
Nature of the test: 1-Aminoanthracene (1-AMA) competition fluorescence assay. It counts as binding.

Test [5] concerns 5 dpf larval zebrafish. Nature of the test: Zebrafish behavioral model of anesthesia, spontaneous movement (SM). It counts as in vivo. As for the experimental part:
as §1, §2

Test [6] deals with tadpoles. Details: method as in PMID 25799399. Conditions: cited from earlier work.
Test [7] concerns the target T1, horse spleen apoferritin (HSAF). Details: method as in doi:10.1055/s-0040-1707287. Conditions: cited from earlier work.
Test [8] concerns zebrafish. More on the design: method as in PMID 33355437. Conditions: cited from earlier work.
[9] abbreviates: PFAL compound alone at 10 and 30 μM, versus DMSO control.

For the compound `CC(C)c1cccc(C(C)C)c1F` [Compound 9, 1,3-diisopropyl-2-fluorobenzene], the “Reversal of established propofol immobility” value in test [1] is on record as “rapid reversal of propofol immobility”. Moreover, the “Elicited movement (EM), compound alone” value in test [2] (setting [9]) was “increased EM”. The “Schild-type analysis with EM” value in test [2] (propofol EC50 curves (EM) at various concentrations of the compound, Fig. S6) is on record as “no such relationship of antagonism was observed”. Further, in test [3], the “Modulation of a propofol-sensitive GABAAR” value is “no significant modulation”. Besides, the “Inhibition of 1-AMA binding to HSAF” value in test [4] (15 μM 1-AMA, 15 μM HSAF dimer, ligand 1 to 125 μM) is “most potent inhibitors of 1-AMA binding”. Also, the “Shape of IC50 curve for 1-AMA displacement” value in test [4] (Fig. 6b) was “incomplete inhibition of 1-AMA binding”. In addition, the “Antagonism of propofol via SM” value in test [5] (30 μM PFAL compound co-administered with propofol (0.3, 1, 5 μM), screen) is listed as “showed antagonism of propofol; also recorded: statistically significant antagonism”. Besides, in test [5] (30 μM PFAL compound, propofol 5 μM), the “Antagonism of propofol via SM at 5 μM propofol” value was “antagonized propofol”. Moreover, the half-maximal inhibitory concentration (IC50) in test [5] (Danio rerio, 120 h, 5 dpf zebrafish exposed to 3 μM propofol, Fig. 5d, read-out: IC50 (antagonism of propofol)) amounted to 37.5 µM. Moreover, in test [5] (setting [9]), the “Spontaneous movement (SM), compound alone” value is given as “increased SM”. The “Increase of propofol EC50 versus propofol alone, spontaneous movement” value in test [5] (propofol plus 30 μM compound, Fig. 4a) is on record as “~ tenfold”. In addition, in test [6], the “Antagonism of propofol in tadpoles” value was “antagonize propofol”. In addition, the “Binding to the anesthetic site of HSAF” value in test [7] was “binds to this site”. Further, the “Antagonism of propofol in zebrafish” value in test [8] is given as “antagonize propofol”.
